Assay results: patent publication US12247037B2, “1-(2,6-diazaspiro[3.3]heptan-6-yl)-5,6-dihydro-4h-benzo[f][1,2,4]triazolo[4,3-A][1,4]diazepine derivatives and related compounds as vasopressin antagonists for the treatment of neuro-psychological disorders” (Neumora Therapeutics, Inc., priority 2018, dated 2025)
Where two headings read alike, the source gives them in different places.

How the values were obtained:
MDR1 (P-glycoprotein) = assay: in vitro; conditions: dog, MDCK-MDR1
[1] = target: T1, human Arginine Vasopressin Receptor V2 (AVPR2) (Homo sapiens, UniProt P30518); assay: Vasopressin V2 receptor antagonist assay (TR-FRET cAMP, 1321N1 cells); type: cell-based
T1 construct: host or cells: 1321N1 cells (cAMPZen V2 assay ready cells)

[2] = target: T2, human Arginine Vasopressin Receptor 1a (AVPR1a) (Homo sapiens, UniProt P37288); assay: Vasopressin V1a receptor antagonist assay (FLIPR calcium, CHO-AVPR1a cells); type: cell-based
T2 construct: expressed in transfected cells; host or cells: CHO (Chinese Hamster Ovary) cells, kept under G418 selection

[3] = target: T3, human Arginine Vasopressin Receptor 1b (AVPR1b) (Homo sapiens, UniProt P47901); assay: Vasopressin V1b receptor antagonist assay (FLIPR calcium, CHO-AVPR1b cells); type: cell-based; conditions: antagonism of AVP (EC80) response
T3 construct: expressed in transfected cells; host or cells: CHO (Chinese Hamster Ovary) cells, kept under G418 selection
T3 sequence (P47901 1-424): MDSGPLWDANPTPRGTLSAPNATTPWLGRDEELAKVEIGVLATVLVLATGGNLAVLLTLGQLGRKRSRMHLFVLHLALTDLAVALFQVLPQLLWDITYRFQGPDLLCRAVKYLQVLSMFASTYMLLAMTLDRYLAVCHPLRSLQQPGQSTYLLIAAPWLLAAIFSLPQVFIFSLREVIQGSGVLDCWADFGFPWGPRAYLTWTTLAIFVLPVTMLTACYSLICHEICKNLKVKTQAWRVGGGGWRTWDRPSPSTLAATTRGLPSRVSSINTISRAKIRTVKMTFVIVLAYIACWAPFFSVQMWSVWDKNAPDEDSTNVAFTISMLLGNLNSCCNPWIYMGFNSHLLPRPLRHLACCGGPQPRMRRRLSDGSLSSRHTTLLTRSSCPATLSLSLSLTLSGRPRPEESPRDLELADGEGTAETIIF
Experimental: The purpose of the assay is to determine the inhibitory effect of synthesized compounds on the Vasopressin V1b receptor. The assay is performed in Chinese Hamster Ovary (CHO) cells expressing the human Arginine Vasopressin Receptor 1b (AVPR1b). Arginine Vasopressin (AVP) evokes an increase in intracellular calcium in CHO-AVPR1b cells which is measured in a fluorescence assay on the FLIPR^TETRA using calcium sensitive dyes. Test compounds are assessed for their ability to affect the magnitude of the response to AVP, with antagonists showing a concentration-dependent reduction in the AVP-mediated fluorescence.
CHO-AVPR1b cells are maintained in routine culture in T175 Flasks at 37° C., 5% CO2. […]
Cells are harvested from T175 flasks when they are 80-90% confluent by first washing the cell monolayer with PBS and then dissociated using trypsin 0.05%/EDTA (3 mL for a T175 Flask). […] To the cell suspension, 10 ml of growth media is added and the cell density determined using the Vi-Cell automated cell counter. […]
At the start of each assay day, the potency of AVP is assessed and an EC80 concentration determined for subsequent compound profiling. […] Changes in fluorescence are monitored for 3 min after both additions on the FLIPR^TETRA using 470-495 nm excitation and 515-575 nm emission wavelengths. […]

[4] = target: T4, human Oxytocin Receptor (hOTR) (Homo sapiens, UniProt P30559); assay: Oxytocin receptor antagonist assay (FLIPR calcium, CHEM-1-hOTR cells); type: cell-based; conditions: antagonism of oxytocin (EC80) response; read-out: OT IC50
T4 construct: host or cells: CHEM-1 cells (ready-to-assay frozen cells)
T4 sequence (P30559 1-389): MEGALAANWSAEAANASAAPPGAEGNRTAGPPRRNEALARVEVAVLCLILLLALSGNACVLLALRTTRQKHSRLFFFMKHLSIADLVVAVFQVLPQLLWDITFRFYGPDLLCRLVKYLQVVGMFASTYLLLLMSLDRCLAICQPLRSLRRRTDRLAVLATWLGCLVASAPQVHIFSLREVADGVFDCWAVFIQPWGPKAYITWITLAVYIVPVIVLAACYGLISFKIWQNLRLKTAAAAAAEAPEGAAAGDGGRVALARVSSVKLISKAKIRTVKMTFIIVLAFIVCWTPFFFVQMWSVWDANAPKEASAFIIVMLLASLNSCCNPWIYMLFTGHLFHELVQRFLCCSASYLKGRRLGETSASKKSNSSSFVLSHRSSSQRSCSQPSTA
Experimental: This assay is performed in CHEM-1 cells expressing the human Oxytocin Receptor (hOTR) to determine the inhibitory effect of the compounds of the invention on the human Oxytocin receptor. Oxytocin evokes an increase in intracellular calcium in CHEM-1-hOTR cells which is measured in a fluorescence assay on the FLIPR^TETRA using calcium sensitive dyes. Test compounds are assessed for their ability to affect the magnitude of the response to oxytocin, with antagonists showing a concentration-dependent reduction in the oxytocin-mediated fluorescence.
CHEM-1-hOTR ready is used to assay frozen cells (Eurofins #HTS090RTA) which are supplied with a proprietary Media Component.
Day 1 of the assay: Cells are thawed in a 37° C. water bath and diluted with the supplied Media Component to a final volume of 10 ml. The cell suspension is centrifuged at 1000 rpm for 3 min at room temperature and the supernatant is discarded. […]
Day 2: At the start of each assay day the potency of oxytocin is assessed and an EC80 concentration is determined for subsequent compound profiling. […] Changes in fluorescence are monitored for 3 min after both additions on the FLIPR^TETRA using 470-495 nm excitation and 515-575 nm emission wavelengths. […] At the end of the incubation period 10 μl of oxytocin in assay buffer containing 0.1% BSA is added at the previously determined EC80 concentration. […]

in vitro = conditions: dog, MDCK

T2 sequence (P37288 whole entry): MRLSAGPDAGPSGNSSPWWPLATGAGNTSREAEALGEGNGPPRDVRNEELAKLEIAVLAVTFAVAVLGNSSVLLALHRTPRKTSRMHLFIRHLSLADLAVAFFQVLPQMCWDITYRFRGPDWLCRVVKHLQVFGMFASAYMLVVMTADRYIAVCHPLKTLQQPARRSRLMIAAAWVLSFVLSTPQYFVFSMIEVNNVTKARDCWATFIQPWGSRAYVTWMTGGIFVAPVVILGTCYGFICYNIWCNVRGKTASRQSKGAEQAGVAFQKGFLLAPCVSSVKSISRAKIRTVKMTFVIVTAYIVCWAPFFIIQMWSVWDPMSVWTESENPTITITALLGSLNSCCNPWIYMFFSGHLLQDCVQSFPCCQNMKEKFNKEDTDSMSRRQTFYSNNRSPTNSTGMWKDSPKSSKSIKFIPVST
T1 sequence (P30518 whole entry): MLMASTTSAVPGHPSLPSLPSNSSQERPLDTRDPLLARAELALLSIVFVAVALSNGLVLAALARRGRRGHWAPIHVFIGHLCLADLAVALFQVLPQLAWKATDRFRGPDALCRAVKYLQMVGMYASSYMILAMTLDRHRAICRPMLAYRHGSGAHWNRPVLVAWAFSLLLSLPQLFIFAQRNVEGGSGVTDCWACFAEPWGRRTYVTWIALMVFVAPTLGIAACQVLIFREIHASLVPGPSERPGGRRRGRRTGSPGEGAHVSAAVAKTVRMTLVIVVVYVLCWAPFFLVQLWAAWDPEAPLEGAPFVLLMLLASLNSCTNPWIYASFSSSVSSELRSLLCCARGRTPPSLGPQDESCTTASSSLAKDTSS

Row | IC50 [3] | IC50 [4] | Papp A→B (in vitro) | IC50 ([2]; antagonism of AVP (EC80) response, read-out: V1a IC50) | SMILES | Papp A→B (MDR1 (P-glycoprotein)) | IC50 [1] | IC50 [2]
1 |  |  |  |  | Clc1ccc2c(c1)CN(C1CC1)Cc1nnc(N3CC4(CN(c5ncccn5)C4)C3)n1-2 [Compound No. 225, 8-chloro-5-cyclopropyl-1-(6-(pyrimidin-2-yl)-2,6-diazaspiro[3.3]heptan-2-yl)-5,6-dihydro-4H-benzo[f][1,2,4]triazolo[4,3-a][1,4]diazepine] | > 20 ×10⁻⁶ cm/s | > 1000 nM | < 100 nM
2 | > 1000 nM | > 1000 nM | 10 to 20 ×10⁻⁶ cm/s | < 100 nM | CN1Cc2cc(Cl)ccc2-n2c(nnc2[C@H]2CC[C@H](Oc3ccccn3)CC2)C1 [balovaptan] | > 20 ×10⁻⁶ cm/s |  | 
